The test system of data set [1] is ADP-induced platelet aggregation, Human PRP. Nature of the data set: ADP-induced platelet aggregation in human PRP (lumi-aggregometer). The class given is cell-based. How it is done:
To investigate whether the candidate substance has inhibition selectivity for shear-stress-induced platelet aggregation, which is by a physical stimulus, […] experiment was conducted by activating platelets with physiological agonists—i.e., thrombin, collagen and ADP—to study the inhibitory effect of the candidate substance.
Human PRP (598.8 μl) was treated with 1.2 μl of the candidate substance per concentration (25, 100, 250 μM) and reacted at 37° C. for 3 minutes using a thermomixer. Then, PRP (495 μl) was put in the aggregometer cuvette and preincubated for 1 minute, followed by treatment with platelet aggregation-inducing reagent, thrombin (0.6-0.8 U/ml), collagen (2-5 μg/ml), or ADP (adenosine diphosphate, 15-20 μM) at the minimum concentration causing maximum aggregation. The degree of aggregation of the platelets was measured by a turbidity change using a lumi-aggregometer (Chrono-Log Co., USA). The turbidity of the PRP was considered as 0%, and the turbidity of the PPP was considered as 100%. During the measurement, the reaction mixture was continuously stirred at 1,000 rpm with a silicone-coated magnetic stir bar.

A further data set concerns ICR mouse. As to conditions: male, in vivo, po, 15 mg/kg, 7 days.
Another data set has as its system Sprague-Dawley rats. Nature of the data set: Bleeding side effect (tail bleeding time) after single oral administration. The class given is in vivo. As to conditions: rat, tail cut 1 hour after administration. How it is done: Male Sprague-Dawley rats (250 to 300 g) were fasted overnight and then were orally administered with the candidate substances at each concentration. After 1 hour, the rats were anesthetized by intraperitoneal injection of urethane (1.25 g/kg). The 3 mm portion of the tail tip of the rats was cut and carefully wiped every 30 seconds. Bleeding time was measured in […] until no more blood was drawn, and when the bleeding lasted longer than 30 minutes, the bleeding time was recorded as 30 minutes.

In data set [2] the test system is carotid artery shear stress model. Nature of the data set: Carotid artery shear stress model, amount of thrombus. In kind it is in vivo, Sprague-Dawley rats. As to conditions: rat, 8 mg/kg oral, twice a day for 3 days after operation. As for the experimental part: Vehicle (0.5% methylcellulose), clopidogrel (8 mg/kg), aspirin (50 mg/kg) or a candidate substance was orally administered to male Sprague-Dawley rats (250 to 300 g). 2 hours after administration, the rats were anesthetized by ketamine/rompun (ketamine/xylazine) cocktail 0.1 ml/100 g. Except for the normal control group, the right cervical skin of the experimental animals was incised to expose the common carotid artery. A surgical tube with a length of 1 mm and an inside diameter of 0.58 mm was inserted into the exposed carotid artery and tied with a single thread. The exposed site and the operation site were treated with an anti-adhesion agent, and then sutured for the animals to recover. After the surgery, vehicle, clopidogrel, aspirin or a candidate substance was orally administered to the rats twice a day for 3 days. On the fourth day, 2 hours after the final administration, urethane (100 mg/300 μl/100 g) was administered intraperitoneally to the rats to induce anesthesia, and the operation site was opened to separate a total of 1 cm of the blood vessel, 5 mm above and 5 mm below the surgical tube. The separated blood vessel was perfused with 0.2 ml of 0.9% saline at 0.3 ml/min to remove the remaining blood, and then maintained in 1 ml of protein lysis buffer (NaOH 2 g, Na2CO3 0.1 g in 500 ml D.W). After collected, the blood vessel thrombus was double-boiled in boiling water together with the protein lysis buffer. 200 μl of the reaction solution (10 ml bicinchoninic acid solution+200 μl 4% aqueous solution of copper sulfate) was added to 10 μl of the heated thrombus, and the mixture was reacted at 37° C. for 30 minutes and quantified with an ELISA reader (562 nm).

Protocol for ICR mouse: One hour after the last administration, the mice were anesthetized by breathing, and the 4 mm portion from the tail tip of the mice was cut. Then, the tail tip of the mice was immersed in a transparent 15-ml tube containing the pre-prepared 37° C. saline. The time when blood was not spread any more and the bleeding stopped was measured.

For `COC(=O)[C@H](c1ccccc1Cl)N1CCc2sccc2C1` [Clopidogrel, clopidogrel, reference compound], the “Degree of platelet aggregation (%, Mean ± SEM)” value in data set [1] (ADP 15-20 μM, compound 40 μM) is on record as 18.3 ± 3.4%. The “platelet aggregation compared with the group treated with ADP only” value in data set [1] (positive control, 40 μM) is recorded as “platelet aggregation was inhibited”. In addition, the “Bleeding time” value in the data set with ICR mouse was 35.4 ± 2.9 min; with Sprague-Dawley rats (2.5 μM (so in the source)) it was 14.3 ± 1.6 min; in the data set on Sprague-Dawley rats (25 μM (so in the source)), 26.8 ± 1.6 min. Also, the “Bleeding time (min)” value in the data set on ICR mouse was “exceeded 35 min”. Moreover, the “bleeding time delayed, times compared with the control group” value in the data set on ICR mouse is “about 22 times”. For the same molecule, the “Amount of thrombus (mg, Mean ± SEM)” value in data set [2] was 0.067 ± 0.004 mg.

Source of the values: patent US10730886B2, “Compound having effect of inhibiting platelet aggregation and salt thereof, and composition for preventing or treating thrombotic diseases, containing same” (SHIN POONG PHARMACEUTICAL CO., LTD., priority 2015, dated 2020).
